From ChEMBL document CHEMBL1641578, “Design and synthesis of 3-(azol-1-yl)phenylpropanes as microbicidal spermicides for prophylactic contraception” (Bioorg Med Chem Lett, 2011)
Values after ≈ are worked out from the molar mass of the structure shown.

Columns and labels:
Candida parapsilosis = test: Antifungal activity against Candida parapsilosis after 48 hrs by broth microdilution assay; assay type: functional; conditions: Lodderomyces parapsilosis
Candida albicans [1] = test: Antifungal activity against Candida albicans NCIM-3557 after 48 hrs by broth microdilution assay; assay type: functional; conditions: NCIM-3557, 48 h
[2] = Toxicity against Lactobacillus acidophilus at 200 ug/ml after 24 hrs by microplate reader
Candida albicans [3] = test: Antifungal activity against Candida albicans MTCC-183 after 48 hrs by broth microdilution assay; assay type: functional; conditions: MTCC-183, 48 h
Candida albicans [4] = test: Antifungal activity against Candida albicans after 48 hrs by broth microdilution assay; assay type: functional
Candida albicans [5] = test: Antifungal activity against Candida albicans isolate CDRI after 48 hrs by broth microdilution assay; assay type: functional
HeLa = test: Cytotoxicity against human HeLa cells at 200 ug/ml after 24 hrs by MTT based colorimetric assay; assay type: cell-based
Spermatozoa = test: Spermicidal activity against human spermatozoa assessed as immobilization measured for 60 seconds by visual scoring; assay type: functional; parameters: concentration or dose not given beside the values
Trichomonas vaginalis = test: Antitrichomonas activity against Trichomonas vaginalis after 48 hrs by trypan blue exclusion assay; assay type: functional

Structure (SMILES)	MIC (Candida parapsilosis)	MIC (Candida albicans [1])	Activity [2]	MIC (Candida albicans [3])	MIC (Candida albicans [4])	MIC (Candida albicans [5])	Activity (HeLa)	Activity (Spermatozoa)	MIC (Trichomonas vaginalis)
Cc1ncc([N+](=O)[O-])n1CCC(=O)c1ccccc1	> 50 µg/mL	> 50 µg/mL	Non-toxic	> 50 µg/mL	> 50 µg/mL	50 µg/mL (≈ 193 µM)	Non-toxic	90%	50 µg/mL (≈ 193 µM)
OC(Cn1cncn1)(Cn1cncn1)c1ccc(F)cc1F [FLUCONAZOLE]	0.5 µg/mL (≈ 1.63 µM)	0.25 µg/mL (≈ 0.816 µM)	–	0.25 µg/mL (≈ 0.816 µM)	0.5 µg/mL (≈ 1.63 µM)	0.25 µg/mL (≈ 0.816 µM)	–	–	–
CCCCCCCCCc1ccc(OCCOCCOCCOCCOCCOCCOCCOCCOCCO)cc1 [NONOXYNOL 9]	50 µg/mL (≈ 81.1 µM)	> 50 µg/mL	Non-toxic	> 50 µg/mL	> 50 µg/mL	> 50 µg/mL	Non-toxic	100%	37.4 µg/mL (≈ 60.6 µM)
OC(CCn1cnc2ccccc21)c1ccccc1 (configuration not stated)	> 50 µg/mL	> 50 µg/mL	Non-toxic	> 50 µg/mL	> 50 µg/mL	50 µg/mL (≈ 198 µM)	Non-toxic	90%	> 200 µg/mL
O=[N+]([O-])c1cn(C/C=C/c2ccccc2)cn1	> 50 µg/mL	> 50 µg/mL	Non-toxic	> 50 µg/mL	> 50 µg/mL	> 50 µg/mL	Non-toxic	80%	25 µg/mL (≈ 109 µM)
OC(CCn1nnc2ccccc21)c1ccccc1 (configuration not stated)	> 50 µg/mL	> 50 µg/mL	Non-toxic	> 50 µg/mL	> 50 µg/mL	50 µg/mL (≈ 197 µM)	Non-toxic	100%	> 200 µg/mL
C(=C\c1ccccc1)/Cn1ccnc1	50 µg/mL (≈ 271 µM)	> 50 µg/mL	Non-toxic	> 50 µg/mL	> 50 µg/mL	25 µg/mL (≈ 136 µM)	Non-toxic	100%	> 200 µg/mL
OC(CCn1ccnc1)c1ccccc1 (configuration not stated)	> 50 µg/mL	> 50 µg/mL	Non-toxic	> 50 µg/mL	> 50 µg/mL	50 µg/mL (≈ 247 µM)	Non-toxic	90%	> 200 µg/mL
O=C(CCn1cnc2ccccc21)c1ccccc1	50 µg/mL (≈ 200 µM)	50 µg/mL (≈ 200 µM)	Non-toxic	> 50 µg/mL	25 µg/mL (≈ 99.9 µM)	25 µg/mL (≈ 99.9 µM)	Non-toxic	100%	200 µg/mL (≈ 799 µM)
OC(CCn1cncn1)c1ccccc1 (configuration not stated)	> 50 µg/mL	> 50 µg/mL	Non-toxic	> 50 µg/mL	> 50 µg/mL	> 50 µg/mL	Non-toxic	70%	> 200 µg/mL
O=C(CCn1cnc([N+](=O)[O-])c1)c1ccccc1	> 50 µg/mL	> 50 µg/mL	Non-toxic	> 50 µg/mL	50 µg/mL (≈ 204 µM)	50 µg/mL (≈ 204 µM)	Non-toxic	100%	25 µg/mL (≈ 102 µM)
FC(F)(F)c1ccc(OC(CCn2nnc3ccccc32)c2ccccc2)cc1 (configuration not stated)	> 50 µg/mL	> 50 µg/mL	Non-toxic	> 50 µg/mL	> 50 µg/mL	> 50 µg/mL	Non-toxic	70%	> 200 µg/mL
O=C(CCn1cncn1)c1ccccc1	> 50 µg/mL	> 50 µg/mL	Non-toxic	> 50 µg/mL	> 50 µg/mL	50 µg/mL (≈ 248 µM)	Non-toxic	60%	> 200 µg/mL
Cc1ncc([N+](=O)[O-])n1CCC(O)c1ccccc1 (configuration not stated)	> 50 µg/mL	> 50 µg/mL	Non-toxic	> 50 µg/mL	> 50 µg/mL	> 50 µg/mL	Non-toxic	70%	50 µg/mL (≈ 191 µM)
